pIC50: −log10 of the molar value.
biological target: T1, Human recombinant PTP-1B (Homo sapiens, UniProt P18031); assay: Assay for PTP-1B Activity (pNPP substrate); format: biochemical; conditions: human recombinant PTP-1B (1-321) GST fusion, 2 mM pNPP, pH 7.4, 30° C., 20 min; read-out: Activity Code (IC50 range)
T1 construct: Human recombinant PTP-1B, containing amino acids 1-321, fused to GST enzyme; GST (glutathione S-transferase)
T1 sequence (P18031 1-321): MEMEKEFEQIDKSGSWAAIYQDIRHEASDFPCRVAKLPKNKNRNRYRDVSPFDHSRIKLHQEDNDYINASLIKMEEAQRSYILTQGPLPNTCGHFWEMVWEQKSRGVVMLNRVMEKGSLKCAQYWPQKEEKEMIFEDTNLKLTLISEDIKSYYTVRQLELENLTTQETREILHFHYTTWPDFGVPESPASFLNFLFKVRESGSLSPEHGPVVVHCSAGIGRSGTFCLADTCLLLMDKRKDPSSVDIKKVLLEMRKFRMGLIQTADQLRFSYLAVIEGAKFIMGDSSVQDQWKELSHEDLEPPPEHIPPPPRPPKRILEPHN
Text: The activity of the compounds as modulators of protein tyrosine phosphatase, including PTP-1B, may be measured in standard assays (see, e.g., Examples 41 and 42). Briefly, the assay described herein employs human recombinant PTP-1B and a pNPP substrate in a rescue assay.
Assay for PTP-1B Activity
Enzyme: Human recombinant PTP-1B, containing amino acids 1-321, fused to GST enzyme (glutathione S-transferase) purified by affinity chromatography (Huyer et al, 1997, J. Biol. Chem., 272, 843-852).
pNPP: p-Nitrophenyl Phosphate (Calbiochem)
Assay Buffer: 50 mM HEPES (pH 7.4), 100 mM NaCl, 2 mM EDTA, 3 mM DTT
(5×) pNPP substrate: 10 mM pNPP in assay buffer
Enzyme: 1 mg/ml PTP1B (1-321), dilute 1:200 in assay buffer
Assay buffer: 50 mM HEPES (pH 7.4), 100 mM NaCl, 2 mM EDTA, 3 mM DTT
Enzyme dilution buffer: 50 mM HEPES (pH 7.4), 100 mM NaCl, 2 mM EDTA, 3 mM DTT
Substrate 198 mM p-Nitrophenyl Phosphate (pNPP) store at 4° C.
The assay was carried out at 30° C. in 96 well plates. The reaction mixture in 60 ul contained 50 mM HEPES (pH 7.4), 100 mM NaCl, 2 mM EDTA, 3 mM DTT, and 2 mM p-Nitrophenyl Phosphate (pNPP). 5 ul of the test compound (inhibitor) dissolved in DMSO or DMSO alone for control was added to each well and the plate was mixed for 2 min. The reaction was initiated by adding 20 ul of diluted PTP1B (5 ng/ul in 50 mM HEPES (pH 7.4), 100 mM NaCl, 2 mM EDTA, 3 mM DTT). After 20 min at 30° C., the enzyme reaction was terminated by adding 100 ul of 2 M K2CO3 to each well. The phosphatase activity was detected by using Victor II plate reader (Wallac) with absorbance detection at 405 nm. All the assays were done at least in duplicate. The initial rate of pNP is plotted against the concentration of inhibitor.

`CS(=O)(=O)c1ccc(Cn2ccn(Cc3ccc(C(F)(F)P(=O)(O)O)c(Br)c3)c2=O)cc1` [Compound 50, ({2-Bromo-4-[3-(4-methanesulfonyl-benzyl)-2-oxo-2,3-dihydro-imidazol-1-ylmethyl]-phenyl}-difluoro-methyl)-phosphonic acid] was tested. Which pIC50 did it give?
The pIC50 was 5.60 to 6.60.

With `COC(=O)COc1ccc(-c2cn(C3CC3)c(=O)n2Cc2ccc(C(F)(F)P(=O)(O)O)c(Br)c2)cc1` [Compound 51, (4-{3-[3-Bromo-4-(difluoro-phosphono-methyl)-benzyl]-1-cyclopropyl-2-oxo-2,3-dihydro-1H-imidazol-4-yl}-phenoxy)-acetic acid methyl ester] as the compound, how does the pIC50 read?
Its pIC50 is 6.60 to 7.00.

`O=C(O)COc1ccc(-c2cn(C3CC3)c(=O)n2Cc2ccc(C(F)(F)P(=O)(O)O)c(Br)c2)cc1` [Compound 52, (4-{3-[3-Bromo-4-(difluoro-phosphono-methyl)-benzyl]-1-cyclopropyl-2-oxo-2,3-dihydro-1H-imidazol-4-yl}-phenoxy)-acetic acid] was tested. Which pIC50 did it give?
The pIC50 was over 7.00.

How did the pIC50 turn out when `CC(C)(C)C(=O)OCOC(=O)c1ccc(-c2cn(Cc3ccccc3)c(=O)n2Cc2ccc(C(F)(F)P(=O)(O)OCOC(=O)C(C)(C)C)c(Br)c2)cc1` [Compound 53, 4-[1-Benzyl-3-(3-bromo-4-{[(2,2-dimethyl-propionyloxy-methoxy)-hydroxy-phosphoryl]-difluoro-methyl}-benzyl)-2-oxo-2,3-dihydro-1H-imidazol-4-yl]-benzoic acid 2,2-dimethyl-propionyloxymethyl ester] was run?
The pIC50 was 4.60 to 5.60.

With `COC(=O)c1ccc(Cn2cc(-c3ccccc3)n(Cc3ccc(C(F)(F)P(=O)(O)O)c(Br)c3)c2=O)cc1` [Compound 54, 4-{3-[3-Bromo-4-(difluoro-phosphono-methyl)-benzyl]-2-oxo-4-phenyl-2,3-dihydro-imidazol-1-ylmethyl}-benzoic acid methyl ester] as the compound, how does the pIC50 read?
Its pIC50 is 6.60 to 7.00.

`O=C(O)c1ccc(Cn2cc(-c3ccccc3)n(Cc3ccc(C(F)(F)P(=O)(O)O)c(Br)c3)c2=O)cc1` [Compound 55, 4-{3-[3-Bromo-4-(difluoro-phosphono-methyl)-benzyl]-2-oxo-4-phenyl-2,3-dihydro-imidazol-1-ylmethyl}-benzoic acid] was tested. Which pIC50 did it give?
The pIC50 was 5.60 to 6.60.

`CC(C)(C)C(=O)OCOP(=O)(O)C(F)(F)c1ccc(Cn2c(-c3ccc(C#N)cc3)cn(Cc3ccccc3)c2=O)cc1Br` [Compound 56, 2,2-Dimethyl-propionic acid ({4-[3-benzyl-5-(4-cyano-phenyl)-2-oxo-2,3-dihydro-imidazol-1-ylmethyl]-2-bromo-phenyl}-difluoro-methyl)-hydroxy-phosphinoyloxymethyl ester] was tested. Which pIC50 did it give?
Its pIC50 is 4.60 to 5.60.

How did the pIC50 turn out when `CC(C)(C)C(=O)OCOP(=O)(OCOC(=O)C(C)(C)C)C(F)(F)c1ccc(Cn2c(-c3ccc(C#N)cc3)cn(Cc3ccccc3)c2=O)cc1Br` [Compound 57, 2,2-Dimethyl-propionic acid ({4-[3-benzyl-5-(4-cyano-phenyl)-2-oxo-2,3-dihydro-imidazol-1-ylmethyl]-2-bromo-phenyl}-difluoro-methyl)-(2,2-dimethyl-propionyloxy-methoxy)-phosphinoyloxymethyl ester] was run?
The pIC50 was under 4.60.

`CS(=O)(=O)c1ccc(Cn2cc(-c3ccccc3)n(Cc3ccc(C(F)(F)P(=O)(O)O)c(Br)c3)c2=O)cc1` [Compound 58, ({2-Bromo-4-[3-(4-methanesulfonyl-benzyl)-2-oxo-5-phenyl-2,3-dihydro-imidazol-1-ylmethyl]-phenyl}-difluoro-methyl)-phosphonic acid] was tested. Which pIC50 did it give?
Its pIC50 is 5.60 to 6.60.

With `CC(C)OC(=O)OC(C)OC(=O)c1ccc(-c2cn(Cc3ccccc3)c(=O)n2Cc2ccc(C(F)(F)P(=O)(O)OC(C)OC(=O)OC(C)C)c(Br)c2)cc1` (stereo not drawn) [Compound 59, 4-[1-Benzyl-3-(3-bromo-4-{difluoro-[hydroxy-(1-isopropoxy-carbonyloxy-ethoxy)-phosphoryl]-methyl}-benzyl)-2-oxo-2,3-dihydro-1H-imidazol-4-yl]-benzoic acid 1-isopropoxy-carbonyloxy-ethyl ester] as the compound, how does the pIC50 read?
The pIC50 was 4.60 to 5.60.

With `COc1cccc(Cn2ccn(Cc3ccc(C(F)(F)P(=O)(O)O)c(Br)c3)c2=O)c1` [Compound 60, ({2-Bromo-4-[3-(3-methoxy-benzyl)-2-oxo-2,3-dihydro-imidazol-1-ylmethyl]-phenyl}-difluoro-methyl)-phosphonic acid] as the compound, how does the pIC50 read?
The pIC50 was 4.60 to 5.60.

With `CCOC(=O)c1ccc(-n2ccn(Cc3ccc(C(F)(F)P(=O)(O)O)c(Br)c3)c2=O)cc1` [Compound 61, 4-{3-[3-Bromo-4-(difluoro-phosphono-methyl)-benzyl]-2-oxo-2,3-dihydro-imidazol-1-yl}-benzoic acid ethyl ester] as the compound, how does the pIC50 read?
The pIC50 was 5.60 to 6.60.

How did the pIC50 turn out when `COC(=O)c1cccc(-c2cn(C3CC3)c(=O)n2Cc2ccc(C(F)(F)P(=O)(O)O)c(Br)c2)c1` [Compound 62, 3-{3-[3-Bromo-4-(difluoro-phosphono-methyl)-benzyl]-1-cyclopropyl-2-oxo-2,3-dihydro-1H-imidazol-4-yl}-benzoic acid methyl ester] was run?
The pIC50 was 5.60 to 6.60.

With `O=C(O)c1cccc(-c2cn(C3CC3)c(=O)n2Cc2ccc(C(F)(F)P(=O)(O)O)c(Br)c2)c1` [Compound 63, 3-{3-[3-Bromo-4-(difluoro-phosphono-methyl)-benzyl]-1-cyclopropyl-2-oxo-2,3-dihydro-1H-imidazol-4-yl}-benzoic acid] as the compound, how does the pIC50 read?
The pIC50 was 5.60 to 6.60.

With `CC(C)(C)C(=O)OCOP(=O)(O)C(F)(F)c1ccc(Cn2c(-c3ccc(S(C)(=O)=O)cc3)c[nH]c2=O)cc1Br` [Compound 64, 2,2-Dimethyl-propionic acid ({2-bromo-4-[5-(4-methanesulfonyl-phenyl)-2-oxo-2,3-dihydro-imidazol-1-ylmethyl]-phenyl}-difluoro-methyl)-hydroxy phosphinoyloxymethyl ester] as the compound, how does the pIC50 read?
Its pIC50 is 4.60 to 5.60.

How did the pIC50 turn out when `CC(C)OC(=O)OC(C)OP(=O)(O)C(F)(F)c1ccc(Cn2c(-c3ccc(S(C)(=O)=O)cc3)c[nH]c2=O)cc1Br` (stereo not drawn) [Compound 65, ({2-Bromo-4-[5-(4-methanesulfonyl-phenyl)-2-oxo-2,3-dihydro-imidazol-1-ylmethyl]phenyl}-difluoro-methyl) phosphonic acid mono-(1-isopropoxy-carbonyloxy-ethyl) ester] was run?
Its pIC50 is 4.60 to 5.60.

How did the pIC50 turn out when `CCOC(=O)n1cc(-c2ccc(C(=O)OC)cc2)n(Cc2ccc(C(F)(F)P(=O)(O)OCOC(=O)C(C)(C)C)c(Br)c2)c1=O` [Compound 66, 3-(3-Bromo-4-{[(2,2-dimethyl-propionyloxy-methoxy)-hydroxy-phosphoryl]-difluoro-methyl}-benzyl)-4-(4-methoxycarbonyl-phenyl)-2-oxo-2,3-dihydro-imidazole-1-carboxylic acid ethyl ester] was run?
The pIC50 was under 4.60.

`COC(=O)c1ccc(-c2cn(Cc3ccc(C(F)(F)P(=O)(O)O)c(Br)c3)c(=O)n2Cc2ccccc2)cc1` [Compound 67, 4-{3-Benzyl-1-[3-bromo-4-(difluoro-phosphono-methyl)-benzyl]-2-oxo-2,3-dihydro-1H-imidazol-4-yl}-benzoic acid methyl ester] was tested. Which pIC50 did it give?
Its pIC50 is 5.60 to 6.60.

How did the pIC50 turn out when `O=C(O)c1ccc(-c2cn(Cc3ccc(C(F)(F)P(=O)(O)O)c(Br)c3)c(=O)n2Cc2ccccc2)cc1` [Compound 68, 4-{3-Benzyl-1-[3-bromo-4-(difluoro-phosphono-methyl)-benzyl]-2-oxo-2,3-dihydro-1H-imidazol-4-yl}-benzoic acid] was run?
The pIC50 was 5.60 to 6.60.

With `Cn1cc(-c2ccc(S(C)(=O)=O)cc2)n(Cc2ccc(C(F)(F)P(=O)(O)OCOC(=O)C(C)(C)C)c(Br)c2)c1=O` [Compound 69, 2,2-Dimethyl-propionic acid ({2-bromo-4-[5-(4-methanesulfonyl-phenyl)-3-methyl-2-oxo-2,3-dihydro-imidazol-1-ylmethyl]-phenyl}-difluoro-methyl)-hydroxy-phosphinoyloxymethyl ester] as the compound, how does the pIC50 read?
The pIC50 was 4.60 to 5.60.

With `CC(C)OC(=O)OC(C)OP(=O)(O)C(F)(F)c1ccc(Cn2c(-c3ccc(S(C)(=O)=O)cc3)cn(C)c2=O)cc1Br` (stereo not drawn) [Compound 70, ({2-Bromo-4-[5-(4-methanesulfonyl-phenyl)-3-methyl-2-oxo-2,3-dihydro-imidazol-1-ylmethyl]-phenyl}-difluoro-methyl)-phosphonic acid mono-(1-isopropoxy-carbonyloxy-ethyl) ester] as the compound, how does the pIC50 read?
Its pIC50 is under 4.60.

Source: patent US20080070867A1, “2-Imidazolone and 2-Imidazolidinone Heterocyclic Inhibitors of Tyrosine Phosphatases” (Metabasis Therapeutics, Inc., priority 2005, published 2008)
